Assay results taken from patent US7011846B2, “Oral capsule formulation with increased physical stability” (Shire Laboratories, Inc., priority 2001, dated 2006).

Test: Capsule shell integrity with NMP alone or NMP:stabilizing agent 1:1 (wt/wt), banded capsules, observed for leakage and shell cracking
Assay type: physicochemical
Settings: NMP alone filled into size 0 hard gelatin capsule
Protocol: NMP was filled into a size 0 hard gelatin capsule in order to determine the effect of NMP on the integrity of the shell.
To stabilize the capsule shell in presence of solution of NMP, various capsule stabilizing agents were studied for their stability inducing properties. Stabilizing agents were each incorporated into NMP separately. Formulations were prepared by mixing or dissolving each excipient in a vial containing NMP with a 1:1 ratio (wt/wt). The solutions were then encapsulated into size 0 hard gelatin capsules and banded to prevent leakage of the fill contents. Capsules were stored at ambient environment and observations were made at regular time intervals for leakage and capsule shell cracking.

CN1CCCC1=O [#1, N-methyl-2-pyrrolidone]
Effect of NMP on the integrity of the capsule shell: Within minutes, the capsule cracked causing the content to leak out
